Reference: ChEMBL document CHEMBL3580546, “Structure-activity study of N-((trans)-4-(2-(7-cyano-3,4-dihydroisoquinolin-2(1H)-yl)ethyl)cyclohexyl)-1H-indole-2-carboxamide (SB269652), a bitopic ligand that acts as a negative allosteric modulator of the dopamine D2 receptor” (J Med Chem, 2015)

Legend:
[1] = biological target: D(2) dopamine receptor (Homo sapiens) (UniProt P14416); assay: Negative allosteric modulator activity at wild type human dopamine D2L receptor expressed in FlpIn CHO […] assessed as ERK1/2 phosphorylation measured as equilibrium dissociation constant after 30 mins; assay type: cell-based
[2] = biological target: D(2) dopamine receptor (Homo sapiens) (UniProt P14416); assay: Displacement of [3H]raclopride from wild type human dopamine D2L receptor expressed in FlpIn CHO cell membrane assessed as equilibrium dissociation constant after 3 hrs by MicroBeta counting analysis; assay type: cell membranes
[3] = biological target: D(2) dopamine receptor (Homo sapiens) (UniProt P14416); assay: Binding affinity to human dopamine D2 receptor

Sequence of D(2) dopamine receptor (Homo sapiens) (P14416 whole entry): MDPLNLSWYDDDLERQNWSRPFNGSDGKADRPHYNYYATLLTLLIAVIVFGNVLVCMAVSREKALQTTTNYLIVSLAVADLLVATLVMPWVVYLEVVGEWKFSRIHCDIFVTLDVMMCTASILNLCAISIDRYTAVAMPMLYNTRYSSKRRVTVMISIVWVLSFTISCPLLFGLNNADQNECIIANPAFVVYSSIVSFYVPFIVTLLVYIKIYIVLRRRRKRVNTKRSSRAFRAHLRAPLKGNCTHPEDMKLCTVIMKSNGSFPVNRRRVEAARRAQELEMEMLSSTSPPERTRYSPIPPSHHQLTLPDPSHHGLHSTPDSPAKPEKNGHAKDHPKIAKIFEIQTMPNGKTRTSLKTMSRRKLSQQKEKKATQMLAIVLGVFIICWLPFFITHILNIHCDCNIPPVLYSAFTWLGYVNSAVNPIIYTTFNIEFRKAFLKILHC

Kb [1] [nM] | pKb [1] | Kb [2] [nM] | pKb [2] | Structure (SMILES) | Kb [3] [nM]
1.38 | 8.86 | 5.25 | 8.28 | O=C(N[C@H]1CC[C@H](CCN2CCN(c3cccc(Cl)c3Cl)CC2)CC1)c1cc2ccccc2[nH]1 | –
2090 | 5.68 | 148 | 6.83 | O=C(N[C@H]1CC[C@H](CCN2CCc3ccc(Cl)cc3C2)CC1)c1cc2ccccc2[nH]1 | –
891 | 6.05 | 759 | 6.12 | O=C(N[C@H]1CC[C@H](CCN2CCc3ccc(C(F)(F)F)cc3C2)CC1)c1cc2ccccc2[nH]1 | –
2570 | 5.59 | 2510 | 5.6 | O=C(N[C@H]1CC[C@H](CCN2CCCc3ccccc3C2)CC1)c1cc2ccccc2[nH]1 | –
138 | 6.86 | 170 | 6.77 | O=C(N[C@H]1CC[C@H](CCN2CCc3ccc(Br)cc3C2)CC1)c1cc2ccccc2[nH]1 | –
1050 | 5.98 | 245 | 6.61 | O=C(N[C@H]1CC[C@H](CCN2CCc3ccc(F)cc3C2)CC1)c1cc2ccccc2[nH]1 | –
0.257 | 9.59 | 3.4 | 8.41 | COc1ccccc1N1CCN(CC[C@H]2CC[C@H](NC(=O)c3cc4ccccc4[nH]3)CC2)CC1 | –
27.5 | 7.56 | 23.4 | 7.63 | N#Cc1ccc2c(c1)CN(CC[C@H]1CC[C@H](NC(=O)[C@@H]3CCCN3)CC1)CC2 | –
30.1 | 7.52 | 269 | 6.57 | N#Cc1ccc2c(c1)CN(CCCCCCNC(=O)c1cc3ccccc3[nH]1)CC2 | –
174 | 6.76 | 81.3 | 7.09 | N#Cc1ccc2c(c1)CN(CC[C@H]1CC[C@H](NC(=O)c3nc4ccccc4[nH]3)CC1)CC2 | –
138 | 6.86 | 372 | 6.43 | N#Cc1ccc2c(c1)CN(CCCNC(=O)c1cc3ccccc3[nH]1)CC2 | –
18.2 | 7.74 | 263 | 6.58 | N#Cc1ccc2c(c1)CN(CC[C@H]1CC[C@H](NC(=O)c3nc4ccccc4o3)CC1)CC2 | –
87 | 7.06 | 295 | 6.53 | O=C(N[C@H]1CC[C@H](CCN2CCc3ccccc3C2)CC1)c1cc2ccccc2[nH]1 | –
339 | 6.47 | 2240 | 5.65 | O=C(N[C@H]1CC[C@H](CCN2CCc3sccc3C2)CC1)c1cc2ccccc2[nH]1 | –
81.2 | 7.09 | 158 | 6.8 | N#Cc1ccc2c(c1)CN(CCCCNC(=O)c1cc3ccccc3[nH]1)CC2 | –
45.7 | 7.34 | 363 | 6.74 | N#Cc1ccc2c(c1)CN(CC[C@H]1CC[C@H](NC(=O)[C@H]3CCCN3)CC1)CC2 | –
91.2 | 7.04 | 117 | 6.93 | CN(C(=O)c1cc2ccccc2[nH]1)[C@H]1CC[C@H](CCN2CCc3ccc(C#N)cc3C2)CC1 | –
– | – | – | – | N#Cc1ccc2c(c1)CNCC2 | 2500
22.9 | 7.64 | 151 | 6.82 | N#Cc1ccc2c(c1)CN(CC[C@H]1CC[C@H](NC(=O)C3=Cc4ccccc4C3)CC1)CC2 | –
18.2 | 7.74 | 282 | 6.55 | N#Cc1ccc2c(c1)CN(CC[C@H]1CC[C@H](NC(=O)c3cc4ccccc4o3)CC1)CC2 | –
23.4 | 7.63 | 45.7 | 7.34 | N#Cc1ccc2c(c1)CN(CC[C@H]1CC[C@H](NC(=O)c3cc4cccnc4[nH]3)CC1)CC2 | –
132 | 6.88 | 479 | 6.32 | N#Cc1ccc2c(c1)CN(CCCCCNC(=O)c1cc3ccccc3[nH]1)CC2 | –
72.4 | 7.14 | 151 | 6.82 | Cn1c(C(=O)N[C@H]2CC[C@H](CCN3CCc4ccc(C#N)cc4C3)CC2)cc2ccccc21 | –
3.31 | 8.48 | 57.5 | 7.24 | N#Cc1ccc2c(c1)CN(CC[C@H]1CC[C@H](NC(=O)c3ccc[nH]3)CC1)CC2 | –
